Data: publication PMC4457528, “Identification of Novel Small Molecule Inhibitors of Oncogenic RET Kinase” (PLoS ONE, 2015)
Read-outs that look alike come from different tables or passages of the source.

Assays:
Assay in all cases: KinomeScan kinase panel, single concentration 10 µM
Format in all cases: binding
KinomeScan kinase panel [1] = target: T1, KinomeScan kinase panel (Homo sapiens, UniProt Q8TD19); details: NEK9, 10 µM; read-out: score (%)
T1 construct: purchased DiscoveRx (KinomeScan)
T1 sequence (Q8TD19 1-979): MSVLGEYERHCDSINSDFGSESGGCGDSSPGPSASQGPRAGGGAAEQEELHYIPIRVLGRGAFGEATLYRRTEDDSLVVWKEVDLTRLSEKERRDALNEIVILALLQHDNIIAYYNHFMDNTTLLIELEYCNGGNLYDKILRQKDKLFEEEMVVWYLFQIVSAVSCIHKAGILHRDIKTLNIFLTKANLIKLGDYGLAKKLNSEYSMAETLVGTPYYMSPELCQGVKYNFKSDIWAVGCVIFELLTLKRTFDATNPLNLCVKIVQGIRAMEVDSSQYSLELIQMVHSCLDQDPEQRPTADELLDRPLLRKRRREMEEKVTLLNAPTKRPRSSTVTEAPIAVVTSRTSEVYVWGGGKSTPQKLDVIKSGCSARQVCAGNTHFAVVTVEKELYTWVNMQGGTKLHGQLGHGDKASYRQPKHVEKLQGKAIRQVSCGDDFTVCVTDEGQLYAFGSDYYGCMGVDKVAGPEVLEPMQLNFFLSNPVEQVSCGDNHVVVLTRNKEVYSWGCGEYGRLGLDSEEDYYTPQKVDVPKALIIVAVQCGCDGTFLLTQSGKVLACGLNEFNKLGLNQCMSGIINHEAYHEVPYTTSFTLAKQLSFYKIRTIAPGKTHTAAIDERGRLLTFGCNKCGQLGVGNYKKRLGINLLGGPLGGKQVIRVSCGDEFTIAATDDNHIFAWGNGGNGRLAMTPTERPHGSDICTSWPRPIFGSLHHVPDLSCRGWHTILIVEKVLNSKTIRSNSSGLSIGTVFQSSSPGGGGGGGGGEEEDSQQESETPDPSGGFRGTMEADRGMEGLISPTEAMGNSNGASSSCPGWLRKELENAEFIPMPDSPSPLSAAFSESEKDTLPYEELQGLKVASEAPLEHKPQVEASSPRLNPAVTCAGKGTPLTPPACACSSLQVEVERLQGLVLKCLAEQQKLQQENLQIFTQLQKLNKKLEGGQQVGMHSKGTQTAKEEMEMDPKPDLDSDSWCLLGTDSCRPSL

KinomeScan kinase panel [2] = target: T2, KinomeScan kinase panel (Homo sapiens, UniProt P0C264); details: read-out: score (%)
T2 construct: purchased DiscoveRx (KinomeScan)
T2 sequence (P0C264 1-359): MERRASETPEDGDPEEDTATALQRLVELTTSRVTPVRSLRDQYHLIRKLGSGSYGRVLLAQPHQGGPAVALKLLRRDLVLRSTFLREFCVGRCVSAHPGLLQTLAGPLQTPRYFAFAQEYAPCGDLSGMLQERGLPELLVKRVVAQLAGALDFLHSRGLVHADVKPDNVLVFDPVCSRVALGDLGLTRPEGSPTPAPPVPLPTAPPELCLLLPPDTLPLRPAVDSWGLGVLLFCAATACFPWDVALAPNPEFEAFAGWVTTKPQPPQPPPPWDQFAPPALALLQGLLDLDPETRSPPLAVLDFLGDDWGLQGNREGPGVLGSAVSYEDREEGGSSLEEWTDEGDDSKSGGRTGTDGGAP

KinomeScan kinase panel [3] = target: T3, KinomeScan kinase panel (Homo sapiens, UniProt Q9UIK4); details: DAPK2, 10 µM; read-out: score (%)
T3 construct: purchased DiscoveRx (KinomeScan)
T3 sequence (Q9UIK4 whole entry): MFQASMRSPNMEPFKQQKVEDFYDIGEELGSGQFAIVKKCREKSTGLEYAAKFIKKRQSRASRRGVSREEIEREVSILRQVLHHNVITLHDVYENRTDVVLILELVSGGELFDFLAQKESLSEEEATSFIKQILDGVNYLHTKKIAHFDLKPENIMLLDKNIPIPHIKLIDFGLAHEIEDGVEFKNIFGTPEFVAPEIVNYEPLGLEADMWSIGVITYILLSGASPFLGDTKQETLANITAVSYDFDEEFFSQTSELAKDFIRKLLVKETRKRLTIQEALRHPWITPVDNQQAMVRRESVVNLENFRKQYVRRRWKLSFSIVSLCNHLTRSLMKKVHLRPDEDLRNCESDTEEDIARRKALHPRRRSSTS

KinomeScan kinase panel [4] = target: T4, KinomeScan kinase panel (Homo sapiens, UniProt P57059); details: 10 µM
T4 construct: purchased DiscoveRx (KinomeScan)

KinomeScan kinase panel [5] = target: T5, KinomeScan kinase panel (Homo sapiens, UniProt P36894); details: BMPR1A, 10 µM; read-out: score (%)
T5 construct: purchased DiscoveRx (KinomeScan)
T5 sequence (P36894 24-532): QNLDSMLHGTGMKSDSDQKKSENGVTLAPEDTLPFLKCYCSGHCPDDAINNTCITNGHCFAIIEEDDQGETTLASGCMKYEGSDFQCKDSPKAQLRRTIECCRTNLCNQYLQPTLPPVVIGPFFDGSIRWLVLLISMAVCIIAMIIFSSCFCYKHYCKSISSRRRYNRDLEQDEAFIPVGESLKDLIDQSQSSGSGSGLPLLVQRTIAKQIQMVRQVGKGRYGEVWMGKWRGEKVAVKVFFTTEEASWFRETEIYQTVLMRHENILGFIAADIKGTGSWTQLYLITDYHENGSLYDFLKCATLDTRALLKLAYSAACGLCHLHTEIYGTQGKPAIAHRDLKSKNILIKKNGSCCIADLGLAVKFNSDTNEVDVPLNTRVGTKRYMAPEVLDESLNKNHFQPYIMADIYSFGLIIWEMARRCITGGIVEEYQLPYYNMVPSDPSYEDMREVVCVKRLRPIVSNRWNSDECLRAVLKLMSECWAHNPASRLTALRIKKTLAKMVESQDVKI

KinomeScan kinase panel [6] = target: T6, KinomeScan kinase panel (Homo sapiens, UniProt P48736); details: PIK3CG, 10 µM; read-out: score (%)
T6 construct: purchased DiscoveRx (KinomeScan)
T6 sequence (P48736 whole entry): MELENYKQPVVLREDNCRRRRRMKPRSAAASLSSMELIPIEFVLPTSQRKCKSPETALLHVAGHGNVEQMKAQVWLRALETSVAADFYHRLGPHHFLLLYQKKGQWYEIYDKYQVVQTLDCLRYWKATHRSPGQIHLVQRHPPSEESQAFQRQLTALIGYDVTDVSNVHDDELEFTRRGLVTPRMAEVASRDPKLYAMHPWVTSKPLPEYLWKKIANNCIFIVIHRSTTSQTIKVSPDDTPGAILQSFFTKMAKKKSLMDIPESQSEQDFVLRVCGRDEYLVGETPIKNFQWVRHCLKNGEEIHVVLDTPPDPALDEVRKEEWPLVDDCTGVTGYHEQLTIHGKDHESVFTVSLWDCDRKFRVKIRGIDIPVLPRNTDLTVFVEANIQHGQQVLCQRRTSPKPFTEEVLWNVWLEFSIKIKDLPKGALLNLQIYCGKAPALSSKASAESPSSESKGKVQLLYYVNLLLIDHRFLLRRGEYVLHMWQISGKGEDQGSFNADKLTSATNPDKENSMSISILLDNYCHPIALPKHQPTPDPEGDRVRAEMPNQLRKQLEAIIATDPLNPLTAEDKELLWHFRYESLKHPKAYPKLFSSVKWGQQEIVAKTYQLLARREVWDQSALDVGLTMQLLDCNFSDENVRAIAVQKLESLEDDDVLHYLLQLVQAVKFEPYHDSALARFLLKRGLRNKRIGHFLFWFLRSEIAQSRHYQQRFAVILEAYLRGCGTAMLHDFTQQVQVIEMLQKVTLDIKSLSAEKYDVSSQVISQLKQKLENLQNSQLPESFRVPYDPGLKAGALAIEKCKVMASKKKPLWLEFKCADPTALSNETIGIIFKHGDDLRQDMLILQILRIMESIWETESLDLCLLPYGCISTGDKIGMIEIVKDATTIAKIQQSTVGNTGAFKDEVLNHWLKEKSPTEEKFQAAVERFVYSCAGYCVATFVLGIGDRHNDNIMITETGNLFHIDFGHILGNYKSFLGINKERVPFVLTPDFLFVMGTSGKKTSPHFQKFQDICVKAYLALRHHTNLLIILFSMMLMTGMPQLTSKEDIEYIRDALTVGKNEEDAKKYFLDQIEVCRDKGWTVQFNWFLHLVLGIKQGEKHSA

KinomeScan kinase panel [7] = target: T7, KinomeScan kinase panel (Homo sapiens, UniProt P53667); details: LIMK1, 10 µM; read-out: score (%)
T7 construct: purchased DiscoveRx (KinomeScan)
T7 sequence (P53667 whole entry): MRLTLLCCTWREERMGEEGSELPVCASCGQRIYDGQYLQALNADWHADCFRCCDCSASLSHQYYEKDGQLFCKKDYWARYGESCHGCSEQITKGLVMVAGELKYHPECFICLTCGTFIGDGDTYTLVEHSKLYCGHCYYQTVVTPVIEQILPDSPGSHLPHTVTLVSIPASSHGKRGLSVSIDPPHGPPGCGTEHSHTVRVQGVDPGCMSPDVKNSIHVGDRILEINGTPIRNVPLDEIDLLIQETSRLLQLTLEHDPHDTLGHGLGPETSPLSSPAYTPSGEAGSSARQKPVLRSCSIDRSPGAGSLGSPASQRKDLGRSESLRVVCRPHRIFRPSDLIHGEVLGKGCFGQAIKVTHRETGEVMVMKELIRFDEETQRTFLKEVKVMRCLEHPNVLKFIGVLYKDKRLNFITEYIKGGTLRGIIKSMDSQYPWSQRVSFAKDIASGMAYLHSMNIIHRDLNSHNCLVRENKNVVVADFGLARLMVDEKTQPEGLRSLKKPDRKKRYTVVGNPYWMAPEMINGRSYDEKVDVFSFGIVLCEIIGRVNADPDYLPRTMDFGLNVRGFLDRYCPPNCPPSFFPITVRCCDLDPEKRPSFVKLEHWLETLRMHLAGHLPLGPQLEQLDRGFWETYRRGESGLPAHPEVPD

KinomeScan kinase panel [8] = target: T8, KinomeScan kinase panel (Homo sapiens, UniProt Q9Y243); details: AKT3, 10 µM; read-out: score (%)
T8 construct: purchased DiscoveRx (KinomeScan)
T8 sequence (Q9Y243 whole entry): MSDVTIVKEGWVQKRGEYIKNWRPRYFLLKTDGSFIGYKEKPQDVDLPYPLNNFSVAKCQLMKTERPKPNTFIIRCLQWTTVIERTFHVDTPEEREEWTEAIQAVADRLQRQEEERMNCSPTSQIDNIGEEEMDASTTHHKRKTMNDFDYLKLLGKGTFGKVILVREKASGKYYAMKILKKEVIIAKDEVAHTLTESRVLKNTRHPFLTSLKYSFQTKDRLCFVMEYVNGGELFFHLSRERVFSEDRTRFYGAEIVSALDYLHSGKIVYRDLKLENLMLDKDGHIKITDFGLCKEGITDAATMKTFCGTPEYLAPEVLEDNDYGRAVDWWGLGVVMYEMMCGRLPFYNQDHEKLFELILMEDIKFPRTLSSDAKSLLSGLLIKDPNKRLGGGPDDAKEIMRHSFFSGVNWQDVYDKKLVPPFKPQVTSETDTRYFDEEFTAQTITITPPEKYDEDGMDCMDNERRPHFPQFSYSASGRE

KinomeScan kinase panel [9] = target: T9, KinomeScan kinase panel (Homo sapiens, UniProt Q9Y5S2); details: MRCKB, 10 µM; read-out: score (%)
T9 construct: purchased DiscoveRx (KinomeScan)
T9 sequence (Q9Y5S2 whole entry): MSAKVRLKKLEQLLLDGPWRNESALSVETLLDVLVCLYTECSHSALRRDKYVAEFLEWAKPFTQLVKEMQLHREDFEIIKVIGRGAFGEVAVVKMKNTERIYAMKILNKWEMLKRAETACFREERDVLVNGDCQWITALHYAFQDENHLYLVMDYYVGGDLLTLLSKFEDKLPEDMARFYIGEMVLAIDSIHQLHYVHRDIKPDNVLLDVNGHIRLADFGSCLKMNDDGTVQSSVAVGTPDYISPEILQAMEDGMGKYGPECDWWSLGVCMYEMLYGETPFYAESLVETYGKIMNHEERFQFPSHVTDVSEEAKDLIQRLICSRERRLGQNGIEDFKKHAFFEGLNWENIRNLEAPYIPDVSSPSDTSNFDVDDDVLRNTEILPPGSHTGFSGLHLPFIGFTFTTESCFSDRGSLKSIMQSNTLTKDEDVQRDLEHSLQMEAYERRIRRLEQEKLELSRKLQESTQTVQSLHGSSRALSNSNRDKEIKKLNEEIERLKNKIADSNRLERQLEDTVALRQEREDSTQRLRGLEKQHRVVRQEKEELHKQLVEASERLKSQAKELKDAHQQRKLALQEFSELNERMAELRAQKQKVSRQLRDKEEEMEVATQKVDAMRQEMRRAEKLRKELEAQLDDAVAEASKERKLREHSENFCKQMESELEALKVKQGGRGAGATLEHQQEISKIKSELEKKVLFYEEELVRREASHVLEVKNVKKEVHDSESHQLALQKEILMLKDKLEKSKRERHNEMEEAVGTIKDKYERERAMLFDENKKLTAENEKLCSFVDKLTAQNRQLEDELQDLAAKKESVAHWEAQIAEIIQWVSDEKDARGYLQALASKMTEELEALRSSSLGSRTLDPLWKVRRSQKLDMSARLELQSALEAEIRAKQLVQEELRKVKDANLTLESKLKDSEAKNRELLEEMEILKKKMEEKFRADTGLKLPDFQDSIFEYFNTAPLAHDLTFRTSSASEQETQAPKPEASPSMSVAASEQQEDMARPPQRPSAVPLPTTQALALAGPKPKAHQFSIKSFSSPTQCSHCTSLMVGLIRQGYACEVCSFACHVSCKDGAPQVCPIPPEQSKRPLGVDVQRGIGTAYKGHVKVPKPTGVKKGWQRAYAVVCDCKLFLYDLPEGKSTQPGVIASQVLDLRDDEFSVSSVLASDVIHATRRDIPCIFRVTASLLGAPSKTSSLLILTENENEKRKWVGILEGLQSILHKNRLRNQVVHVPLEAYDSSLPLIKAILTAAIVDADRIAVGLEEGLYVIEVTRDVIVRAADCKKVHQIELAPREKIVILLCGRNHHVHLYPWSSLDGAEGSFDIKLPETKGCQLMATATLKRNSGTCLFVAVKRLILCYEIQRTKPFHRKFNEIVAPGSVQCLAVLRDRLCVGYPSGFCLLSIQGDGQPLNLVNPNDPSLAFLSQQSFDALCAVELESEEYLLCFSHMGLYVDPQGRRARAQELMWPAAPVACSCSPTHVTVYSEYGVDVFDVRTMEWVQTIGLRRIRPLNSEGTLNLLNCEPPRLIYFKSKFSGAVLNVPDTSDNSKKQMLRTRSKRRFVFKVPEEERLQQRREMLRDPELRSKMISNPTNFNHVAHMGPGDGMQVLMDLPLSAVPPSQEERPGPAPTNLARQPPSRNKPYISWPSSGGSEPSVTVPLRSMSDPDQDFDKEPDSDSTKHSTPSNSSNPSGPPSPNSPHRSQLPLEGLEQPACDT

KinomeScan kinase panel [10] = target: T10, KinomeScan kinase panel (Homo sapiens, UniProt P36888, N841I); details: FLT3(N841I), 10 µM; read-out: score (%)
T10 construct: purchased DiscoveRx (KinomeScan)
T10 sequence (P36888 27-993 N841I): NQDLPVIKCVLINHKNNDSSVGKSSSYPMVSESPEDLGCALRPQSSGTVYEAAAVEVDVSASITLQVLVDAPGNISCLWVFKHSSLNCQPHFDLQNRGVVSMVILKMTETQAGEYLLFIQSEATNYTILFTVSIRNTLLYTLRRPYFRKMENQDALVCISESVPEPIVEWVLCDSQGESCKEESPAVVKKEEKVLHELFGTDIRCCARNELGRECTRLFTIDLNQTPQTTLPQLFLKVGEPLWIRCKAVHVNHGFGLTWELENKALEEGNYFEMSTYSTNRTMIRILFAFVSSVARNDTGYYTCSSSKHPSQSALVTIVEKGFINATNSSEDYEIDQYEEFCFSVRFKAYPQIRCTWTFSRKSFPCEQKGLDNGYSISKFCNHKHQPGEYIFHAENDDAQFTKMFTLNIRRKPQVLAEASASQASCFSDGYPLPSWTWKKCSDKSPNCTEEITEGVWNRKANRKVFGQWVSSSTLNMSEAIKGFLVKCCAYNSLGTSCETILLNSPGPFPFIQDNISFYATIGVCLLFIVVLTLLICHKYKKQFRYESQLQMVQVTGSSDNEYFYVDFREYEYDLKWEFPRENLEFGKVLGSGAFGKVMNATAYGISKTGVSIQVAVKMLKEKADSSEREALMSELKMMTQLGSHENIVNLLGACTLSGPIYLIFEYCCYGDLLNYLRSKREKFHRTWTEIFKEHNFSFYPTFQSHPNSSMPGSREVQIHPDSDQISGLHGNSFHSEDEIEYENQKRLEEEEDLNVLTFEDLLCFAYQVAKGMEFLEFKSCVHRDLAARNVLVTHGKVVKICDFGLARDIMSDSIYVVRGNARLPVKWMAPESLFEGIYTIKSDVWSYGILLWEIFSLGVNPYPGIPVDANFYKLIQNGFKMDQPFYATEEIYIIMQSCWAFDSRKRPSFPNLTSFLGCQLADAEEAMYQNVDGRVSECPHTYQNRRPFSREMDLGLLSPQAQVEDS

Structure (SMILES): CCN1CCN(Cc2ccc(NC(=O)c3ccc(C)c(NC(=O)c4cncc(-c5cccs5)c4)c3)cc2C(F)(F)F)CC1 [ALW-II-41-27]
- remaining binding at 10 µM (KinomeScan kinase panel [1]): > 30%
- remaining binding at 10 µM (KinomeScan kinase panel [2]; kinase SgK110, 10 µM): > 30%
- remaining binding at 10 µM (KinomeScan kinase panel [3]): > 30%
- score (%) (KinomeScan kinase panel [4]; kinase SIK): 0.2%
- remaining binding at 10 µM (KinomeScan kinase panel [5]): > 30%
- remaining binding at 10 µM (KinomeScan kinase panel [6]): > 30%
- remaining binding at 10 µM (KinomeScan kinase panel [7]): 23%
- remaining binding at 10 µM (KinomeScan kinase panel [8]): 20%
- remaining binding at 10 µM (KinomeScan kinase panel [9]): > 30%
- remaining binding at 10 µM (KinomeScan kinase panel [10]): 0.75%

Structure (SMILES): CCN1CCN(Cc2ccc(NC(=O)c3ccc(C)c(/C=C/c4cnc5[nH]ccc5c4Cl)c3)cc2C(F)(F)F)CC1 [HG-6-63-01, (E)-3-(2-(4-chloro-1H-pyrrolo[2,3-b]pyridin-5-yl)vinyl)-N-(4-((4-ethylpiperazin-1-yl)methyl)-3-(trifluoromethyl)phenyl)-4-methylbenzamide]
- remaining binding at 10 µM (KinomeScan kinase panel [1]): 28%
- remaining binding at 10 µM (KinomeScan kinase panel [2]; SgK110, 10 µM): 29%
- remaining binding at 10 µM (KinomeScan kinase panel [3]): > 30%
- score (%) (KinomeScan kinase panel [4]; SNF1LK): 0.3%
- remaining binding at 10 µM (KinomeScan kinase panel [5]): > 30%
- remaining binding at 10 µM (KinomeScan kinase panel [6]): > 30%
- remaining binding at 10 µM (KinomeScan kinase panel [7]): 4.1%
- remaining binding at 10 µM (KinomeScan kinase panel [8]): > 30%
- remaining binding at 10 µM (KinomeScan kinase panel [9]): 30%
- remaining binding at 10 µM (KinomeScan kinase panel [10]): 0.15%

Structure (SMILES): CCN1CCN(Cc2ccc(NC(=O)c3ccc(C)c(C#Cc4cccnc4)c3)cc2C(F)(F)F)CC1 [XMD15-44]
- remaining binding at 10 µM (KinomeScan kinase panel [1]): 41%
- remaining binding at 10 µM (KinomeScan kinase panel [2]; kinase SgK110, 10 µM): 100%
- remaining binding at 10 µM (KinomeScan kinase panel [3]): > 30%
- score (%) (KinomeScan kinase panel [4]; kinase SIK): 0.45%
- remaining binding at 10 µM (KinomeScan kinase panel [5]): > 30%
- remaining binding at 10 µM (KinomeScan kinase panel [6]): 100%
- remaining binding at 10 µM (KinomeScan kinase panel [7]): 3%
- remaining binding at 10 µM (KinomeScan kinase panel [8]): > 30%
- remaining binding at 10 µM (KinomeScan kinase panel [9]): > 30%
- remaining binding at 10 µM (KinomeScan kinase panel [10]): 0%
